Measurements: paper PMC5802278, “Molecular and cellular mechanisms of HIF prolyl hydroxylase inhibitors in clinical trials” (Chemical Science, 2017)
Like-named read-outs stand apart in the source and are kept apart here.

Assays:
FIH = FIH (Homo sapiens, UniProt Q9NWT6); experiment: LC-MS (RapidFire) FIH hydroxylation assay; assay type: biochemical
[1] = tested on: patients with haemodialysis CKD, Hb 9.5-12.0 g/dL; parameters: method as in ref 43 (a number printed in a supplementary file, which may have a reference list of its own: not looked up in the article's list); settings: cited from earlier work
[2] = target: T1, PHD2 catalytic domain (residues 181-426) (Homo sapiens, UniProt Q9GZT9); experiment: NMR KD measurement (2OG displacement or water relaxation); assay type: binding; parameters: The catalytic domain of human PHD2 (residues 181-426) was used in all; made in house; settings: water relaxation or 2OG displacement
Method: Water-Ligand Observed Gradient SpectroscopY (wLOGSY) experiments were conducted […]
Solvent excitation was achieved using a 16 ms 180 degree selective rectangular shape pulse with 100% truncation level and 1000 points (Squa100.1000) set at the H2O frequency. Water suppression was achieved by a 2 ms Sinc (Sinc1.1000) pulse at the H2O frequency.
2OG displacement experiments were monitored by CPMG-edited 1H NMR using a Bruker […]
supplemented with 60 µM Zn(II) and increasing concentrations of the inhibitors from a […]
(90°x−[τ−180°y−τ−90°y−τ−180°y−τ]n−acq), was applied. Typical experimental parameters were […]
suppression was achieved by presaturation.
For 13C-CODD and […] displacement experiments, 1D Clean In-Phase (CLIP) HSQC with selective 13C-inversion displacement experiments were conducted using a Bruker AV700 instrument. 3 mm MATCH NMR tubes were used (Cortecnet). All experiments were […]
prolyl-ring. 7 The CLIP-HSQC sequence was used for 1D HSQC experiments (without 13C decoupling).8 Relaxation delay was 2s. The 1JCH was set to 160 Hz. A 6.8 ms Q3.1000 180 degree pulse was used and selective irradiation was applied at the selected chemical shift. […]
Samples were prepared by mixing reaction mixture (1 μL) with α-cyano-4-hydrocinnamic acid (CHCA) solution (water:acetonitrile 1:1) (1 μL). Dose-response was assessed in 8-point […]

PHD2 [3] = target: T2, PHD2 (Homo sapiens, UniProt Q9GZT9); experiment: LC-MS based RapidFire PHD2 hydroxylation assay; assay type: biochemical; settings: 150 nM isolated recombinant human PHD2, LC-MS based RapidFire assay
Method: LC-MS PHD2 hydroxylation assays
The PHD2 RF-MS RapidFire liquid chromatography mass spectrometry (RF-MS) assay monitors turnover of a C-terminal oxygenase dependent domain (CODD) peptide substrate
(Pro564) in an endpoint type assay format (typical enzyme incubation time of 15 minutes).
Tris(hydroxymethyl)aminomethane was from Fisher. Ferrous ammonium sulfate (FAS), 2-oxoglutarate (2OG) and L-ascorbic acid were from Sigma Aldrich; solutions of these were prepared freshly each day. All inhibition assays were carried out in 384-well polypropylene plates (Greiner Bio-One). PHD2 assays were performed in assay buffer (50 mM Tris.Cl pH
well polypropylene assay plates. The final assay concentration of DMSO was kept constant at 0.5%. PHD2 protein was prepared at a concentration of 300 nM in assay buffer and 25 μl dispensed across each 384-well assay plate. […]
water containing 0.1% formic acid onto the mass spectrometer. Peptide charge states were monitored in positive mode. Ion chromatogram data were extracted for the +2 charge state and peak area data integrated using RapidFire Integrator software (Agilent). % conversion of the CODD peptide substrate to the +16 hydroxylated peptide was calculated using the equation: % conversion = 100 x hydroxylated / (hydroxylated + non-hydroxylated peptide). IC50 values were determined from non-linear regression plots using GraphPad prism.

[4] = target: T1, PHD2 catalytic domain (residues 181-426); experiment: 1H CPMG NMR screening of equimolar enzyme-inhibitor mixture; assay type: binding; parameters: The catalytic domain of human PHD2 (residues 181-426) was used in all; made in house; settings: equimolar enzyme-inhibitor mixture (50 µM)
[5] = target: T1, PHD2 catalytic domain (residues 181-426); experiment: AlphaScreen antibody based PHD2 assay (HIF-1α CODD peptide hydroxylation); assay type: biochemical; parameters: 10 nM PHD2 (catalytic domain, residues 181–426); made in house; settings: AlphaScreen; 5 nM PHD2, 2 μM 2OG, 60 nM biotinylated CODD peptide; read-out: IC50 PHD2
Method: AlphaScreen antibody based PHD assays were as reported[39] using 384-well white ProxiPlates™ (PerkinElmer). Reactions were performed in 50 mM HEPES buffer pH 7.5, 0.01% Tween-20 and 0.1% BSA in a final volume of 10 μL at room temperature. […] The luminescence signal was measured using an Envision (Perkin Elmer) plate reader. Data were analyzed utilizing GraphPad prism.

PHD2 [6] = target: T2, PHD2; experiment: MALDI-TOF MS PHD hydroxylation assay; assay type: biochemical; settings: 1μM isolated recombinant human PHD2, MALDI-TOF MS
Method: Protocols for in vitro PHD1–3 MALDI-TOF MS hydroxylation assays[30] and for the AlphaScreen histone demethylase assays[44] were as reported.
Although sharing homologous C-terminal catalytic domains, the N-terminal regions of PHD1–3 vary. […] In vitro inhibition assays of the clinical trial PHD inhibitors (and some of their structurally related analogue) against 1 μM recombinant human PHD1–3 were performed.
Fig. S11. In vitro PHD isoform selectivity profiling of PHD inhibitors. Inhibition of PHD inhibitors against human PHD125 -3 as assayed by MALDI-TOF MS (the protocol is described in Chan et al. ). Eight concentrations were used to obtained dose-response curve for each compound. Data points presented in the graph are mean with standard deviation, n=3. IC50 […]
(1 picture or pasted object on this page, not shown here)

[7] = tested on: patients with anaemia secondary to CKD stage 3 or 4; parameters: method as in ref 32 (a number printed in a supplementary file, which may have a reference list of its own: not looked up in the article's list); settings: 6 weeks, cited from earlier work

Chain of FIH (Q9NWT6 whole entry): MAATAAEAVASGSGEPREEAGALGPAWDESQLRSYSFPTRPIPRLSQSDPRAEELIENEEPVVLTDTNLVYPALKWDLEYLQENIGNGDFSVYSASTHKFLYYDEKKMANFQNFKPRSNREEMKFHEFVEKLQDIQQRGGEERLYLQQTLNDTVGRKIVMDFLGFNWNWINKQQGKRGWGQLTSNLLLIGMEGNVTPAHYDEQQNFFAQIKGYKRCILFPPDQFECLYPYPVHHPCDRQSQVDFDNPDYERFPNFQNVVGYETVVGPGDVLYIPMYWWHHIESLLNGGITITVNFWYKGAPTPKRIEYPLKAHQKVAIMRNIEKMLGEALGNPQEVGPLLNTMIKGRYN
T2 sequence (Q9GZT9 whole entry, the tested form may be a part): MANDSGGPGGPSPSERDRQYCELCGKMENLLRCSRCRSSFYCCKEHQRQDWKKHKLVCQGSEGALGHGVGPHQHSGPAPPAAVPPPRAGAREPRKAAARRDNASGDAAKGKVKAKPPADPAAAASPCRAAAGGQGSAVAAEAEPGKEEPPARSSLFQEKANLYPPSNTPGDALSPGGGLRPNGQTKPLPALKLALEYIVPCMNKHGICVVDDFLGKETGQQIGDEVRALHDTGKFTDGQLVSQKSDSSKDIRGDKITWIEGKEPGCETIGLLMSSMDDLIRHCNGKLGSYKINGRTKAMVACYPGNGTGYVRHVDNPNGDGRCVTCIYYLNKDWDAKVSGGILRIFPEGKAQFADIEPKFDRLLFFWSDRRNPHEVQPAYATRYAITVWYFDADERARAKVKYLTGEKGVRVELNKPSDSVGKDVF
T1 sequence (Q9GZT9 181-426): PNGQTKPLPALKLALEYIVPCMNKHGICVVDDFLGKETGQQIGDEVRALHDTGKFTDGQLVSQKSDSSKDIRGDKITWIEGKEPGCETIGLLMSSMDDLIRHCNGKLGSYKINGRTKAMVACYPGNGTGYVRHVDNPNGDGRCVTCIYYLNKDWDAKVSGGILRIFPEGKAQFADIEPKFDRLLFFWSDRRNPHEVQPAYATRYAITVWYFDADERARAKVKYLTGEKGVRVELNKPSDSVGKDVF

## Cc1nc(C(=O)NCC(=O)O)c(O)c2ccc(Oc3ccccc3)cc12 [FG-4592]
FIH
  IC50: > 100000 nM

## O=C(O)CNC(=O)C1C(=O)N(C2CCCCC2)C(=O)N(C2CCCCC2)C1=O [GSK1278863]
[1]; 4 mg daily
  mean Hb increase from baseline at week 4: -0.28 g/dL
[1]; 6 mg daily
  mean Hb increase from baseline at week 4: -0.01 g/dL
[1]; 8 mg daily
  mean Hb increase from baseline at week 4: 0.54 g/dL
[1]; 10 mg daily
  mean Hb increase from baseline at week 4: 0.97 g/dL

## CC(C)(C)OC(=O)c1ccc(-n2[nH]cc(-n3ccnn3)c2=O)nc1 [IOX4]
[2]
  KD: sub-μM range
PHD2 [3]
  IC50: 540 nM
[4]
  binding by 1H CPMG NMR: strong binding
[5]
  IC50: 3 nM
PHD2 [6]
  IC50: 940 nM

## O=c1c(-n2ccnn2)c[nH]n1-c1cc(N2CCOCC2)ncn1 [Molidustat]
[2]
  KD: sub-μM range
PHD2 [3]
  IC50: 1320 nM
[4]
  binding by 1H CPMG NMR: strong binding
[5]
  IC50: 7 nM
PHD2 [6]
  IC50: 1850 nM
FIH; isolated protein assays, Table 1
  IC50 for FIH relative to PHD2: > 100 fold
FIH; isolated recombinant enzyme, read-out: IC50 FIH
  IC50: 66000 nM

## O=C(O)CNC(=O)c1ncc(-c2cccc(Cl)c2)cc1O [Vadadustat]
[7]; 240 mg daily
  subjects with Hb increase ≥ 1 g/dL from baseline: 31%
[7]; 370 mg daily
  subjects with Hb increase ≥ 1 g/dL from baseline: 40%
[7]; 500 mg daily
  subjects with Hb increase ≥ 1 g/dL from baseline: 65%
[7]; 630 mg daily
  subjects with Hb increase ≥ 1 g/dL from baseline: 78%
